Patent publication US20240165281A1, “DUAL MODE RADIOTRACER AND THERAPEUTICS” (Technische Universität München, priority 2021, published 2024)

Experiments:
[1] = Apparent molecular weight (MWapp)
[2] = system: LNCaP tumor-bearing male CB-17 SCID mice; assay: Biodistribution studies 24 h p.i.; details: Table 1
Experimental: Approximately 3-7 MBq (0.1-0.2 nmol) of the radioactive-labelled PSMA inhibitors were injected into the tail vein of LNCaP tumor-bearing male CB-17 SCID mice and sacrificed after 24 h post injection. Selected organs were removed, weighted and measured in a γ-counter. Results are all decay corrected and given in % injected dose per gram of tissue (% iD/g). Tumor-to-organ ratios are calculated from animals' individual ratios and are given as mean±standard deviation.

PSMA = target: T1, PSMA (Homo sapiens, UniProt Q04609); assay: PSMA affinity (IC50), competition with [125I]I-BA-KuE on LNCaP cells; type: binding; details: natLu complex, on ice 60 min, read-out: IC50
T1 construct: PSMA-positive LNCAP cells (300265; Cell Lines Service, Eppelheim, Germany); host or cells: LNCaP cells
T1 sequence (Q04609 whole entry): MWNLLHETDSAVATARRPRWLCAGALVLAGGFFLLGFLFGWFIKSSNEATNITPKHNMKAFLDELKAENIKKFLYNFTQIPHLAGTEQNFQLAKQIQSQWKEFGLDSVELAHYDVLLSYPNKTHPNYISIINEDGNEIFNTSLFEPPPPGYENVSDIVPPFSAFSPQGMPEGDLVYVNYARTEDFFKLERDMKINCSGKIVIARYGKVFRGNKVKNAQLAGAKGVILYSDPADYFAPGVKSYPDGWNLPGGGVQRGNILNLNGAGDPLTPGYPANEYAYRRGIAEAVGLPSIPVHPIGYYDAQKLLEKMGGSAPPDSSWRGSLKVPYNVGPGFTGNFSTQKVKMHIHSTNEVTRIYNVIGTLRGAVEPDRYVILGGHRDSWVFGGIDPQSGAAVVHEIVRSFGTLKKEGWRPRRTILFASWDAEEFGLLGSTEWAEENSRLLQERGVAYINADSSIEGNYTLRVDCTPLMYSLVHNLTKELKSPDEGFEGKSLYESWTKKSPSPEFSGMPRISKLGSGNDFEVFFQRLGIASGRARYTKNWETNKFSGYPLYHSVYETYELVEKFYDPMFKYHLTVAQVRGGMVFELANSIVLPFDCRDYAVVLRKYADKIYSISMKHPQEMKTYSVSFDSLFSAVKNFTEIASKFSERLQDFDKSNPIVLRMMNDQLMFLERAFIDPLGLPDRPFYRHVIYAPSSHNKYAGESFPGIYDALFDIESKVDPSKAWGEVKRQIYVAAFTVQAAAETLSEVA
Experimental: A mixture of trypsin and EDTA (0.05%, 0.02%) in PBS (Biochrom) was used in order to harvest cells. Cells were counted with a Neubauer hemocytometer (Paul Marienfeld, Lauda-Königshofen, Germany).
Affinity Determinations (IC50)
In the case of metal-complexed ligands, the crude reaction mixture was diluted analogously, without further purification. Cells were harvested 24±2 hours prior to the experiment and seeded in 24-well plates (1.5×10^5 cells in 1 mL/well). […] The media of both steps were combined in one fraction and represent the amount of free radioligand. Afterwards, the cells were lysed with 250 μL of 1 M aqueous NaOH for at least 10 min. After a washing step (250 μL of 1 M NaOH), both fractions, representing the amount of bound ligand, were united. Quantification of all collected fractions was accomplished in a γ-counter. PSMA-affinity determinations were carried out at least three times per ligand.

[3] = target: T2, Human Serum Albumin (HSA) (Homo sapiens, UniProt P02768); assay: Human serum albumin (HSA) binding by high performance affinity chromatography (HPAC); type: in vitro ADME; details: Chiralpak HSA column
T2 construct: purchased Daicel H13H-2433
T2 sequence (P02768 25-609): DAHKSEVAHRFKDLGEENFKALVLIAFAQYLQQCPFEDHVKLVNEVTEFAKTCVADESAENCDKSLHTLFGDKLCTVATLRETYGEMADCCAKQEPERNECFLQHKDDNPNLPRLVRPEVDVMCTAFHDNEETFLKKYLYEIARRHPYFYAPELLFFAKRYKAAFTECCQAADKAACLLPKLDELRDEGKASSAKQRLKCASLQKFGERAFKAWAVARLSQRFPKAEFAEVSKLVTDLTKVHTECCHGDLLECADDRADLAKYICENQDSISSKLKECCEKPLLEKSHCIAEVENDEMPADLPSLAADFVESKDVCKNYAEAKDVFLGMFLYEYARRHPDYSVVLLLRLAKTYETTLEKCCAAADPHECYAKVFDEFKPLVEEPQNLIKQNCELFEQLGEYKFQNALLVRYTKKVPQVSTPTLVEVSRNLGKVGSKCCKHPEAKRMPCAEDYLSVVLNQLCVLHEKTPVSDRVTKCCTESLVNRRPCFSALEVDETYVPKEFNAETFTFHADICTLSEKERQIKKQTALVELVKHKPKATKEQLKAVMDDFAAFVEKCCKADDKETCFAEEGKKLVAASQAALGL
Experimental: Determination of Human Serum Albumin (HSA) Binding by High Performance Affinity Chromatography (HPAC)
HSA binding of the PSMA-addressing ligands was determined according to a previously published procedure via HPLC (Valko, K.; Nunhuck, S.; Bevan, C.; Abraham, M. H.; Reynolds, D. P. Journal of pharmaceutical sciences 2003, 92, 2236-2248). A Chiralpak HSA column (50×3 mm, 5 μm, H13H-2433, Daicel, Tokyo, Japan) was used at a constant flow rate of 0.5 mL/min at rt. Mobile phase A was a freshly prepared 50 mM aqueous solution of NH4OAc (pH 6.9) and mobile phase B was isopropanol (HPLC grade, VWR). The applied gradient for all experiments was 100% A (0 to 3 min), followed by 80% A (3 to 40 min). Prior to the experiment, the column was calibrated using nine reference substances with a HSA binding, known from literature, in the range of 13 to 99% (Valko, K.; Nunhuck, S.; Bevan, C.; Abraham, M. H.; Reynolds, D. P. Journal of pharmaceutical sciences 2003, 92, 2236-2248; Yamazaki, K.; Kanaoka, M. Journal of Pharmaceutical sciences 2004, 93, 1480-1494). All substances, including the examined PSMA ligands, were dissolved in a 1:1 mixture (v/v) of isopropanol and a 50 mM aqueous solution of NH4OAc (pH6.9) with a final concentration of 0.5 mg/mL. Non-linear regression was established with the OriginPro 2016G software (Northampton, United States) (FIG. 8).

[4] = Octanol-water partition coefficient (log D7.4); type: physicochemical; details: PBS pH 7.4 / n-octanol, 177Lu-labelled
Experimental: Octanol-Water Partition Coefficient (log D7.4)
Approximately 1 MBq of the labelled tracer was dissolved in 1 mL of a 1:1 mixture (v/v) of PBS (pH 7.4) and n-octanol in a reaction vial (1.5 mL). After vigorous mixing of the suspension for 3 minutes at room temperature, the vial was centrifuged at 15000 g for 3 minutes (Biofuge 15, Heraus Sepatech, Osterode, Germany) and 100 μL aliquots of both layers were measured in a gamma counter. The experiment was repeated at least six times.

LNCaP cells = assay: Internalization studies in LNCaP cells; type: cell-based; details: 37° C., 60 min, normalized to ([125I]I-BA)KuE
Experimental: PSMA-positive LNCAP cells (300265; Cell Lines Service, Eppelheim, Germany) were cultivated in Dulbecco modified Eagle medium/Nutrition Mixture F-12 with Glutamax (1:1) (DMEM-F12, Biochrom, Berlin, Germany) supplemented with fetal bovine serum (10%, FBS Zellkultur, Berlin, Germany) and kept at 37° C. in a humidified CO2 atmosphere (5%). A mixture of trypsin and EDTA (0.05%, 0.02%) in PBS (Biochrom) was used in order to harvest cells. Cells were counted with a Neubauer hemocytometer (Paul Marienfeld, Lauda-Königshofen, Germany).
For internalization studies, LNCaP cells were harvested 24±2 hours before the experiment and seeded in poly-L-lysine coated 24-well plates (1.25×10^5 cells in 1 mL/well, Greiner Bio-One, Kremsmünster, Austria). After removal of the culture medium, the cells were washed once with 500 μL DMEM-F12 (5% BSA) and left to equilibrate for at least 15 min at 37° C. in […] DMEM-F12 (5% BSA). Each well was treated with either 25 μL of either DMEM-F12 (5% BSA, control) or 25 μL of a 100 μM PMPA (2-(Phosphonomethyl)-pentandioic acid, Tocris Bioscience, Bristol, UK) solution in PBS, for blockade. Next, 25 μL of the radioactive-labelled PSMA inhibitor (10.0 nM in DMEM-F12 (5% BSA)) was added and the cells were incubated at 37° C. for 60 min. The experiment was terminated by placing the 24-well plate on ice for 3 min and consecutive removal of the medium. Each well was carefully washed with 250 μL of ice-cold HBSS. Both fractions from the first steps, representing the amount of free radioligand, were combined. Removal of surface bound activity was accomplished by incubation of the cells with 250 μL of ice-cold PMPA (10 μM in PBS) solution for 5 min and rinsed again with another 250 μL of ice-cold PBS. The internalized activity was determined by incubation of the cells in 250 μL […] aqueous NaOH for at least 10 min. The obtained fractions were combined with those of the subsequent wash step with 250 μL 1 M aqueous NaOH. Each experiment (control and blockade) was performed in triplicate. Free, surface bound and internalized activity was quantified in a y-counter. All internalization studies were accompanied by external reference studies, using ([^125I]I-BA)KuE (c=0.2 nM), which were performed analogously. Data were corrected for non-specific binding and normalized to the specific-internalization observed for the radioiodinated reference compound.

[5] = Wängler et al. 2010; cited from earlier work

Compound: CC(C)(C)[Si](F)(c1ccc(C(=O)NC[C@@H](NC(=O)CC[C@@H](C(=O)O)N2CCN(CC(=O)O)CCN(CC(=O)O)CCN(CC(=O)O)CC2)C(=O)N[C@H](CCCCNC(=O)CCC(=O)NCCC[C@@H](NC(=O)CC[C@H](NC(=O)N[C@@H](CCC(=O)O)C(=O)O)C(=O)O)C(=O)O)C(=O)O)cc1)C(C)(C)C [rhPSMA-7.3, reference compound]
- MWapp [1]: 30.4 kDa
- Kidneys (24 h) [2]: 1.4 ± 0.4 % iD/g
- Tumor (24 h) [2]: 7.5 ± 0.9 % iD/g
- T/K-ratio ([2]; tumor/kidney): 5.17
- IC50 (PSMA): 3.29 ± 1 nM
- HSA (HPAC) [3]: 98.6%
- logD7.4 [4]: −4.12 ± 0.11^
- Internalization (LNCaP cells): 184 ± 12 % IBA-KuE

Compound: SIFA-Asn(AcNH-β-Glc)-PEG-Tyr^3 -octreotate
- log P(ow) [5]: 0.96

Compound: SIFA-Asn(AcNH-β-Glc)-Tyr^3 -octreotate
- log P(ow) [5]: 1.23
